Results as given in patent US20110092448A1, “Peptide Conjugate for Oral Delivery of Hydrophilic Peptide Analgesics” (METABOLIC PHARMACEUTICALS LIMITED, priority 2005, published 2011).
Where two headings read alike, the source gives them in different places.

Legend:
[1] = system: neuronal nicotinic acetylcholine receptor; format: cell-based, bovine
[2] = rat, in vivo
[3] = system: chronic neuropathy (CCI) in Sprague-Dawley rats; conditions: rat, in vivo
[4] = system: STZ diabetic Sprague-Dawley rats with neuropathic pain; conditions: rat, in vivo

Question: With `CC[C@H](C)[C@@H]1NC(=O)[C@H](CCC(=O)O)NC(=O)[C@@H]2CCCN2C(=O)[C@H](Cc2cnc[nH]2)NC(=O)[C@H](CC(=O)O)NC(=O)[C@H](Cc2ccc(O)cc2)NC(=O)[C@H](CC(N)=O)NC(=O)[C@@H]2CSSC[C@H](NC(=O)CN)C(=O)N[C@@H](CSSC[C@@H](C(N)=O)NC1=O)C(=O)N[C@@H](CO)C(=O)N[C@@H](CC(=O)O)C(=O)N1CCC[C@H]1C(=O)N[C@@H](CCCNC(=N)N)C(=O)N2` [ACV1, Gly-Cys-Cys-Ser-Asp-Pro-Arg-Cys-Asn-Tyr-Asp-His-Pro-Glu-Ile-Cys-NH2] as the compound, how does the “catecholamine release in response to nicotine” value [1] read?
Answer: Its value is “decreased catecholamine release”.

Question: What about the “oral availability compared with subcutaneous (plasma concentrations)” value [2] of the same compound?
Answer: Its value is 1-2%.

Question: What about the “analgesic effect (relieving pain)” value [3] of the same compound?
Answer: The value was “not effective”.

Question: And the “analgesic effect (relieving pain)” value ([3]; po)?
Answer: The value was “not effective”.

Question: What about the “analgesic effect (relieving pain)” value ([3]; sc) of the same compound?
Answer: The value was “effective”.

Question: What does the source list for “Ac-Tyr-Leu-Arg-Ile-Val-Gly-Cys-Cys-Ser-Asp-Pro-Arg-Cys-Asn-Tyr-Asp-His-Pro-Glu-Ile-Cys-NH2 (Ac-YLRIVGCCSDPRCNYDHPEIC-NH2; cysteine pairing not given here) [ACV3]”?
Answer: catecholamine release in response to nicotine [1]: decreased catecholamine release; relative oral availability [4]: 30-70%; minimum dose for maximal activity ([4]; po): ~0.3 mg/kg; oral absorption (time profile of effect) ([4]; po): rapid; minimum dose for maximal activity ([4]; sc): ~0.3 mg/kg; analgesic effect vs vehicle group ([3]; 2 mg/kg): significant difference; withdrawal threshold after one hour ([3]; 2 mg/kg): increase in withdrawal threshold
